Measurements reported in patent publication US11053216B2, “Compounds and methods of use” (Medivation Technologies LLC, priority 2014, dated 2021).

Key:
[1] = Pharmacokinetics and bioavailability in male mice after a single dose; format: in vivo
ALK3 (BMPR1A) = ALK3 (BMPR1A) (Homo sapiens (Human), UniProt P36894); experiment: In vitro kinase assay (33P ATP, 10 μM ATP); format: biochemical; conditions: read-out: Inhibition of ALK3 (IC50 μM)
[2] = Plasma and brain concentrations at 0.5 and 1 h; format: in vivo, mice

ALK3 (BMPR1A), sequence (P36894 24-532): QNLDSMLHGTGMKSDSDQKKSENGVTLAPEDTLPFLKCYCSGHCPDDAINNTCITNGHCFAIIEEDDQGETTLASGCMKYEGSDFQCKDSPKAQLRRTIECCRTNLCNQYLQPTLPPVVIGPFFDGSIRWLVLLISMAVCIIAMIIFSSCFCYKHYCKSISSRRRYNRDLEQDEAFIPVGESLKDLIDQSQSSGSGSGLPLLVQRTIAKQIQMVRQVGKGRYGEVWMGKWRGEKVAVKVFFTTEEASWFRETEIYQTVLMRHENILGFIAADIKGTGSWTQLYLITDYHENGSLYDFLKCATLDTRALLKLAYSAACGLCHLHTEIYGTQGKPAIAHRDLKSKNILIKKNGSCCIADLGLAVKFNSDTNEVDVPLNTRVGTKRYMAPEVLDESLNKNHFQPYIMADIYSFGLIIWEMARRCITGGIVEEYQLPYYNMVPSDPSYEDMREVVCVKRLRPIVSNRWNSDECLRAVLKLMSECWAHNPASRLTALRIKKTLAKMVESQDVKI

| Compound | Cmax ([1]; oral, 10 mg/kg) [µM] | Brain concentration ([2]; IV 2 mg/kg, 0.5 h) [ng/mL] | Plasma concentration ([2]; IV 2 mg/kg, 0.5 h) [ng/mL] | Brain concentration ([2]; IV 2 mg/kg, 1 h) [ng/mL] | Plasma concentration ([2]; IV 2 mg/kg, 1 h) [ng/mL] | Brain concentration ([2]; PO 10 mg/kg, 0.5 h) [ng/mL] | Plasma concentration ([2]; PO 10 mg/kg, 0.5 h) [ng/mL] | Brain concentration ([2]; PO 10 mg/kg, 1 h) [ng/mL] | Plasma concentration ([2]; PO 10 mg/kg, 1 h) [ng/mL] | further results |
| --- | --- | --- | --- | --- | --- | --- | --- | --- | --- | --- |
| CC(C)c1cnc(-c2cc(Cl)ccc2F)cc1Nc1ncncc1C(=O)NC[C@H](C)O (single isomer, unassigned) [12a] | – | – | – | – | – | – | – | – | – | Cmax ([1]; mouse, plasma, intravenous, 2 mg/kg): 7.15 µM |
| Fc1ccc(Cl)cc1-c1cc(Nc2ccnc3[nH]ccc23)c(C2CC2)cn1 [compound 32, 2-(5-chloro-2-fluorophenyl)-5-cyclopropyl-N-{1H-pyrrolo[2,3-b]pyridin-4-yl}pyridin-4-amine] | – | – | – | – | – | – | – | – | – | IC50 (ALK3 (BMPR1A)): 333 µM |
| C[C@H](O)CNC(=O)c1cnccc1Nc1cc(-c2cc(Cl)ccc2F)ncc1N(C)C [16a, (S)-4-(2-(5-chloro-2-fluorophenyl)-5-(dimethylamino)pyridin-4-ylamino)-N-(2-hydroxypropyl)nicotinamide] | 3.42 | – | – | – | – | – | – | – | – | – |
| CCc1cnc(-c2cc(Cl)ccc2F)cc1Nc1ccncc1C(=O)NC[C@H](C)O (single isomer, unassigned) [11a] | 3.48 | – | – | – | – | – | – | – | – | – |
| C=C(C)c1cnc(-c2cc(Cl)ccc2F)cc1Nc1ccncc1C(=O)NC[C@H](C)O [3a, (S)-4-(2-(5-chloro-2-fluorophenyl)-5-(prop-1-en-2-yl)pyridin-4-ylamino)-N-(2-hydroxypropyl)pyridine-5-carboxamide] | – | 173 | 432 | 168 | 365 | 305 | 1280 | 406 | 1250 | – |
| CC(C)c1cnc(-c2cc(Cl)ccc2F)cc1Nc1ccncc1C(=O)NC[C@H](C)O [2a, (S)-4-[[2-(5-chloro-2-fluoro-phenyl)-5-isopropyl-4-pyridyl]amino]-N-(2-hydroxypropyl)pyridine-3-carboxamide] | – | 73.2 | 310 | 82.4 | 366 | 202 | 1570 | 114 | 905 | – |
